This passage reports CC50 and EC50 results from patent US8673929B2, “4,6-di- and 2,4,6-trisubstituted quinazoline derivatives and pharmaceutical compositions useful for treating viral infections” (priority 2006, dated 2014).

Data set [1] is described as follows: CC50 assay in the anti-HCV replicon assay (CellTiter-Glo). In kind it is cell-based, human. The settings on record: human, Huh-7 hepatoma cells harbouring an HCV replicon; Huh-7 HCV replicon cells, 3 days incubation, CellTiter-Glo luminescence. The method, boiled down:
(§1)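 Huh-7 cells harbouring an HCV replicon (6000/well) incubated 3 days at 37° C with 3-fold serially diluted compound (0.5% DMSO final where used). EC50 from luciferase luminescence of lysed cells; CC50 from CellTiter-Glo luminescence in parallel plates.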
Background: Replicon systems follow genome replication, usually without infectious particles.

Another data set deals with HCV replicon. Description: Anti-HCV replicon assay, EC50 (luciferase readout). Format: cell-based. Particulars: Hepatitis C virus, 72 h; Huh-7 HCV replicon cells, 3 days incubation, luciferase luminescence. The method in brief: as §1

One may read the CC50 as the concentration that lowers cell viability or growth by half. Higher therefore signals lower toxicity to the cells. In general, EC50 refers to the midpoint of the concentration-response curve. A high value points to a need for much substance. The compound `CNC(=O)c1ccc(-c2ccc3ncnc(OC(C)C)c3c2)cc1` [Example 245, 4-(4-Isopropoxy-quinazolin-6-yl)-N-methyl-benzamide] showed a CC50 at 3 days in data set [1] of more than 20 µM. For the same compound, in the data set on HCV replicon, the EC50 is 1 to 10 µM.

For the compound `CCOc1nc(N)nc2ccc(-c3cccc(C(=O)NC)c3)cc12` [Example 168, 3-(2-Amino-4-ethoxy-quinazolin-6-yl)-N-methyl-benzamide], the CC50 at 3 days in data set [1] is more than 20 µM. In addition, the concentration for a half-maximal effect (EC50) in the data set on HCV replicon lay within 1 to 10 µM.

Regarding `CNC(=O)c1ccc(-c2ccc3nc(N)nc(OC(C)C)c3c2)cc1` [Example 87, 4-(2-Amino-4-isopropoxy-quinazolin-6-yl)-N-methyl-benzamide], the CC50 at 3 days in data set [1] lay in the range of 10 to 20 µM. The concentration for a half-maximal effect (EC50) in the data set with HCV replicon was in the range of 0.3 to 1 µM.

In data set [1], `COCCOc1nc(N)nc2ccc(-c3ccc(O)cc3)cc12` [Example 68, 4-[2-Amino-4-(2-methoxy-ethoxy)-quinazolin-6-yl]-phenol] came in with a CC50 at 3 days of 10 to 20 µM. This compound had an EC50 in the data set with HCV replicon of 0.3 to 1 µM.

As for `CN(C)CCOCCOc1nc(N)nc2ccc(-c3ccc(OC(F)(F)F)cc3)cc12` [Example 73, 4-[2-(2-Dimethylamino-ethoxy)-ethoxy]-6-(4-trifluoromethoxy-phenyl)-quinazolin-2-ylamine], the cytotoxic concentration (CC50) at 3 days in data set [1] was 10 to 20 µM. In the data set with HCV replicon, this compound came in with an EC50 of 1 to 10 µM.

The compound `CCOc1nc(N)nc2ccc(-c3cccs3)cc12` [Example 42, 4-Ethoxy-6-thiophen-2-yl-quinazolin-2-ylamine] yielded a CC50 at 3 days in data set [1] of less than 10 µM. The compound also displayed an EC50 in the data set with HCV replicon of 1 to 10 µM.

As to `CCOc1nc(N)nc2ccc(-c3ccc(C(=O)NCc4ccco4)cc3)cc12` [Example 157, 4-(2-Amino-4-ethoxy-quinazolin-6-yl)-N-furan-2-ylmethyl-benzamide], in data set [1], the CC50 at 3 days is more than 20 µM. Besides, the EC50 in the data set on HCV replicon is 1 to 10 µM.

In the case of `COCCOc1nc(N)nc2ccc(-c3ccccc3C(F)(F)F)cc12` [Example 53, 4-(2-Methoxy-ethoxy)-6-(2-trifluoromethyl-phenyl)-quinazolin-2-ylamine], the CC50 at 3 days in data set [1] was less than 10 µM. The compound also yielded an EC50 with HCV replicon of 1 to 10 µM.

In the case of `CCOc1nc(N)nc2ccc(-c3ccc(C(=O)NC4CCCCC4)cc3)cc12` [Example 151, 4-(2-Amino-4-ethoxy-quinazolin-6-yl)-N-cyclohexyl-benzamide], the CC50 at 3 days in data set [1] was 10 to 20 µM. Besides, the EC50 in the data set on HCV replicon lay within 1 to 10 µM.

In data set [1], `Nc1nc(OCC2CCC2)c2cc(-c3cccc(C(F)(F)F)c3)ccc2n1` [Example 106, 4-Cyclobutylmethoxy-6-(3-trifluoromethyl-phenyl)-quinazolin-2-ylamine] had a CC50 at 3 days of 10 to 20 µM. In addition, in the data set with HCV replicon, the EC50 fell in the range of 1 to 10 µM.

Compound `CCOc1nc(N)nc2ccc(-c3ccc(C(=O)Nc4ccc(F)cc4)cc3)cc12` [Example 161, 4-(2-Amino-4-ethoxy-quinazolin-6-yl)-N-(4-fluoro-phenyl)-benzamide] showed a CC50 at 3 days in data set [1] of less than 10 µM. For the same compound, the EC50 with HCV replicon lay in the range of 0.3 to 1 µM.

In the case of `CC(C)(C)NC(=O)c1ccc(-c2ccc3nc(N)nc(OCCF)c3c2)cc1` [Example 200, 4-[2-Amino-4-(2-fluoro-ethoxy)-quinazolin-6-yl]-N-tert-butyl-benzamide], the CC50 at 3 days in data set [1] is more than 20 µM. In the data set with HCV replicon, this compound gave an EC50 of 1 to 10 µM.

In data set [1], `CC(C)Oc1nc(N)nc2ccc(-c3ccc(N)cc3)cc12` [Example 96, 6-(4-Amino-phenyl)-4-isopropoxy-quinazolin-2-ylamine] displayed a CC50 at 3 days of more than 20 µM. In addition, in the data set with HCV replicon, the EC50 was in the range of 0.3 to 1 µM.

`CC(C)Oc1nc(N)nc2ccc(-c3cccc(C#N)c3)cc12` [Example 93, 3-(2-Amino-4-isopropoxy-quinazolin-6-yl)-benzonitrile] displayed a CC50 at 3 days in data set [1] of 10 to 20 µM. This compound gave an EC50 in the data set with HCV replicon of 0.3 to 1 µM.

`CC(C)Oc1nc(N)nc2ccc(-c3ccc(F)cc3Cl)cc12` [Example 81, 6-(2-Chloro-4-fluoro-phenyl)-4-isopropoxy-quinazolin-2-ylamine] gave a CC50 at 3 days in data set [1] of 10 to 20 µM. Besides, the EC50 in the data set with HCV replicon was 1 to 10 µM.

`COCCOc1ncnc2ccc(-c3ccc(F)cc3)cc12` [Example 35, 4-(2-methoxyethoxy)-6-(4-fluorophenyl)-quinazoline] gave a CC50 at 3 days in data set [1] of more than 20 µM. Moreover, the EC50 in the data set on HCV replicon lay in the range of 1 to 10 µM.

For `CCOc1nc(N)nc2ccc(-c3ccc(C(=O)NC4CC4)cc3)cc12` [Example 167, 4-(2-Amino-4-ethoxy-quinazolin-6-yl)-N-cyclopropyl-benzamide], the CC50 at 3 days in data set [1] was more than 20 µM. In the data set with HCV replicon, the EC50 was less than 0.3 µM.

`CCOc1ccc(-c2ccc3nc(N)nc(OCC4CCC4)c3c2)cc1` [Example 109, 4-Cyclobutylmethoxy-6-(4-ethoxy-phenyl)-quinazolin-2-ylamine] gave a CC50 at 3 days in data set [1] of more than 20 µM. The EC50 in the data set with HCV replicon lay within 1 to 10 µM.

Turning to `CCCCNC(=O)c1ccc(-c2ccc3nc(N)nc(OC(C)C)c3c2)cc1` [Example 173, 4-(2-Amino-4-isopropoxy-quinazolin-6-yl)-N-butyl-benzamide], the CC50 at 3 days in data set [1] is less than 10 µM. This compound had an EC50 in the data set with HCV replicon of less than 0.3 µM.

On to `CCOc1nc(N)nc2ccc(-c3ccc(C)cc3)cc12` [Example 39, 4-Ethoxy-6-p-tolyl-quinazolin-2-ylamine], for which the CC50 at 3 days in data set [1] was more than 20 µM. Also, in the data set with HCV replicon, the concentration giving a half-maximal response (EC50) is 1 to 10 µM.

`COCCOc1nc(N)nc2ccc(-c3ccc(F)cc3C)cc12` [Example 67, 6-(4-Fluoro-2-methyl-phenyl)-4-(2-methoxy-ethoxy)-quinazolin-2-ylamine]: the CC50 at 3 days in data set [1] lay in the range of 10 to 20 µM. For the same compound, in the data set on HCV replicon, the EC50 lay within 1 to 10 µM.

In data set [1], `Nc1nc(OCCO)c2cc(-c3ccc(O)cc3)ccc2n1` [Example 193, 4-[2-Amino-4-(2-hydroxy-ethoxy)-quinazolin-6-yl]-phenol] had a CC50 at 3 days of more than 20 µM. Also, the EC50 in the data set on HCV replicon is 1 to 10 µM.

For the compound `COCCOc1nc(N)nc2ccc(-c3ccc(C)cc3)cc12` [Example 55, 4-(2-Methoxy-ethoxy)-6-p-tolyl-quinazolin-2-ylamine], in data set [1], the CC50 at 3 days was more than 20 µM. The EC50 in the data set with HCV replicon is 1 to 10 µM.

As to `CN(C)CCNC(=O)c1ccc(-c2ccc3nc(N)nc(O[C@H]4CCOC4)c3c2)cc1` [Example 216], the CC50 at 3 days in data set [1] is more than 20 µM. The EC50 in the data set with HCV replicon was less than 0.3 µM.

In data set [1], `CC(C)CNC(=O)c1ccc(-c2ccc3nc(N)nc(OCCF)c3c2)cc1` [Example 198, 4-[2-Amino-4-(2-fluoro-ethoxy)-quinazolin-6-yl]-N-isobutyl-benzamide] returned a 50% cytotoxic concentration (CC50) at 3 days of 10 to 20 µM. This compound had a concentration for a half-maximal effect (EC50) in the data set on HCV replicon of 1 to 10 µM.

Compound `CC(C)Oc1nc(N)nc2ccc(-c3ccc(C(=O)N4CCCCC4)cc3)cc12` [Example 169, [4-(2-Amino-4-isopropoxy-quinazolin-6-yl)-phenyl]-piperidin-1-yl-methanone] yielded a CC50 at 3 days in data set [1] of more than 20 µM. Further, the EC50 in the data set on HCV replicon lay in the range of 1 to 10 µM.

In turn, `CCOc1nc(N)nc2ccc(-c3ccc(C(=O)N4CCCC4)cc3)cc12` [Example 126, [4-(2-Amino-4-ethoxy-quinazolin-6-yl)-phenyl]-pyrrolidin-1-yl-methanone] yielded a half-maximal cytotoxic concentration (CC50) at 3 days in data set [1] of more than 20 µM. In addition, in the data set with HCV replicon, the EC50 lay within 1 to 10 µM.

`Nc1nc(OCCO)c2cc(-c3ccc(C(=O)NC4CC4)cc3)ccc2n1` [Example 195, 4-[2-Amino-4-(2-hydroxy-ethoxy)-quinazolin-6-yl]-N-cyclopropyl-benzamide] returned a CC50 at 3 days in data set [1] of more than 20 µM. Further, the EC50 in the data set on HCV replicon fell in the range of 1 to 10 µM.

`COCCOc1nc(N)nc2ccc(-c3cccc(C#N)c3)cc12` [Example 63, 3-(2-Amino-4-(2-methoxy-ethoxy)-quinazolin-6-yl)-benzonitrile] gave a CC50 at 3 days in data set [1] of more than 20 µM. The compound also yielded an EC50 in the data set with HCV replicon of 1 to 10 µM.
